Assays:
Sandostatin = experiment: Recovery of structural integrity of Sandostatin in dry formulations following gamma irradiation (HPLC); assay type: physicochemical; conditions: structural integrity by HPLC, excipient:Sandostatin weight ratio 10:1, 25-40 kGy
Experimental: (§1) In each example, an aqueous solution of a protein was prepared with selected additives in an Eppendorf tube or in a glass vial. Water was removed from the formulation by drying under a stream of nitrogen at 30° C. and subsequent incubation at atmospheric pressure in the presence of a dessicant. The Eppendorf tubes or the glass vials were sealed and delivered to an industrial sterilisation service for gamma irradiation, with a dose range typical for sterile medical products. The gamma-irradiated samples were reconstituted on their return and analysed for protein activity or structural integrity. The results were compared with those achieved using control (i.e. non-irradiated) samples.
(§2) The dry samples (approx. 20 μg in an Eppendorf tube) were gamma-irradiated by an industry-standard commercial sterilising service provided by Isotron PLC (Swindon, Wilts, UK), using a Cobalt 60 gamma source at ambient temperature. The radiation dose was in the range of 25-40 kGy.
Mobile phase A was 0.1 M triethylamine adjusted to pH 2.3 with phosphoric acid. Mobile phase B was acetonitrile. The mobile phases were filtered prior to their use. The following linear gradient was used: time 0: 90% A+10% B; time 35 min: 60% A+40% B. The liquid chromatograph (Agilent 1100 series) was equipped with a 214 nm detector, guard column and a 4.6×150 mm C18 column with a granulometry of 5 μm and a porosity of 30 nm, maintained at ambient temperature. The flow rate was maintained at 1.0 mL min^−1. Injection volume was 50 μL (typically sandostatin at 200 μg mL^−1). Results were expressed as % of main peak area (i.e. area of the peak corresponding to intact sandostatin measured in the gamma irradiated sample with respect to that measured in non-irradiated sample of identical composition). A chromatogram of a standard solution of sandostatin was recorded after every 12 samples to ensure that no drift in the position of the major peak had occurred. The control measurements ruled out any ambiguity in interpreting the chromatograms.

human growth hormone [1] = biological target: T1, human growth hormone (Homo sapiens, UniProt P01241); experiment: Recovery of structural integrity of human growth hormone in dry formulations following gamma irradiation (HPLC); assay type: physicochemical; conditions: Table 4, prior-art antioxidants; structural integrity by HPLC; human growth hormone 2.5 mg mL^−1 prior to drying; dry; 25-40 kGy, ambient temperature
T1 construct: purchased National Institute of Biological Standards and Control; further samples on prescription from a GP surgery

catalase = biological target: T2, catalase (Bos taurus, UniProt P00432); experiment: Activity recovery of catalase in dry formulations following gamma irradiation; assay type: physicochemical, bovine; conditions: Table 10, superoxide scavengers; catalase 100 μg mL^−1 prior to drying; dry; 25-40 kGy
T2 construct: Catalase (from bovine liver, Sigma C9322, 2380 U /mg solid); purchased Sigma C9322; host or cells: bovine liver
T2 sequence (P00432 2-527 limits assumed): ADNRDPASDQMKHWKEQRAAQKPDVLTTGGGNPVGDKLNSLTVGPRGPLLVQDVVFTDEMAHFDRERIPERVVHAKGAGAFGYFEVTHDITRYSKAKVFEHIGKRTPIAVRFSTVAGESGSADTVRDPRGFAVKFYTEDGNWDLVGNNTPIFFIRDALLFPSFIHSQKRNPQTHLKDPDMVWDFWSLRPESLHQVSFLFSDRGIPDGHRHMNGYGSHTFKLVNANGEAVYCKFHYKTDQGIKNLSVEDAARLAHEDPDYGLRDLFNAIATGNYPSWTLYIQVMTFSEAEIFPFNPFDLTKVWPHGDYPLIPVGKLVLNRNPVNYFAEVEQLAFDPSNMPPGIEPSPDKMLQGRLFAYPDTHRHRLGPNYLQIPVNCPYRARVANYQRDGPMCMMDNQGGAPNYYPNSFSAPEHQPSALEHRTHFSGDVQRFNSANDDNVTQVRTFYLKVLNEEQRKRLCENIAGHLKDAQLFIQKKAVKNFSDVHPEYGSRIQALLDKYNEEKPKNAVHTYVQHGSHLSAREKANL
Experimental: as §1, §2
The original solutions (i.e. solutions prior to drying) contained 100 μg mL^−1 of catalase and typically the total of 100 mM of protective compounds (i.e. 100 mM in case of a single compound, 50 mM+50 mM in case of two compounds, 33.3 mM+33.3 mM+33.3 mM in the case of three compounds etc.). The solutions were dried and gamma irradiated. Following the gamma irradiation, the samples, both pre- and post-gamma irradiated, were assayed for […] activity. This was performed according to the following procedure:
Water was added to the sample to achieve 100 μg mL^−1 of catalase. 100 μL of the solution was added to a mixture of 18 mL of PBS and 2 mL of hydrogen peroxide (30 mM in water) in a 125 mL polypropylene pot and mixed. The resulting mixture was incubated at room temperature precisely for 30 min. In the meantime, the following reagents were mixed in a plastic cuvette for spectrophotometric measurements: • 2.73 mL of citrate/phosphate buffer (0.1 M, pH 5.0) • 100 μL of tetramethylbenzidine (TMB) (3 mg/mL, dissolved in dimethyl sulphoxide (DMSO)) • 100 μL of lactoperoxidase
Following the 30 min incubation period, 70 μL of the catalase containing mixture was added to the cuvette and absorbance was read in approximately 30 s. The results were expressed as percentage recovery, by reference to the absorbance measured in the fresh samples (i.e. prior to incubation at increased temperature).

human growth hormone [2] = biological target: T1, human growth hormone; experiment: Recovery of structural integrity of human growth hormone in dry formulations following gamma irradiation (HPLC); assay type: physicochemical; conditions: structural integrity by HPLC, human growth hormone 2.5 mg mL^−1 prior to drying, 25-40 kGy
Experimental: as §1, §2
Mobile phase was prepared by mixing 71 parts (by volume) of a solution of TRIS (0.05 M, in water adjusted with hydrochloric acid to a pH of 7.5) and 29 parts (by volume) of n-propylalcohol. The mobile phase was filtered prior to its use. The liquid chromatograph (Agilent 1100 series) was equipped with a 214 nm detector and a 4.6×250 mm column (Phenomenex 00G-4167-E0) packed with butylsilyl silica gel with a granulometry of 5 μm and a porosity of 30 nm, maintained at 45° C. The flow rate was maintained at 0.5 mL min^−1. 15 μL of aqueous samples of human growth hormone (typically 1-2.5 mg mL^−1) were injected. Results were expressed as % of peak area corresponding to the gamma irradiated sample with respect to that measured in non-irradiated sample.

T1 sequence (P01241 27-217): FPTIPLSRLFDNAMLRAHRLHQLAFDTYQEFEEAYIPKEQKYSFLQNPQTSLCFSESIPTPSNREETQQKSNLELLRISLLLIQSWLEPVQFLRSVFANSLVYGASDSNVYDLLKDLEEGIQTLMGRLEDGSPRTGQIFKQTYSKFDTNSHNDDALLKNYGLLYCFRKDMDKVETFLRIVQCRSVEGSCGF

CSCC[C@H](N)C(=O)O [Methionine]
Enzyme activity remaining after gamma-irradiation (Sandostatin; Table 8, singlet oxygen scavengers): 91.1% | Enzyme activity remaining after gamma-irradiation (Sandostatin; Table 12, superoxide scavengers): 91.1% | Structural integrity remaining after gamma-irradiation (HPLC) (human growth hormone [1]): 69.7% | Enzyme activity remaining after gamma-irradiation (catalase): 44.3% | Structural integrity remaining after gamma-irradiation (HPLC) (human growth hormone [2]; Table 4, prior-art antioxidants, ambient temperature): 69.7% | Structural integrity remaining after gamma-irradiation (HPLC) (human growth hormone [2]; Table 7, singlet oxygen scavengers): 69.7% | Structural integrity remaining after gamma-irradiation (HPLC) (human growth hormone [2]; Table 11, superoxide scavengers): 69.7%
